Assays:
[1] = biological target: SHP-2 full length protein (Homo sapiens (Human), UniProt Q06124); assay: SHP-2 biochemical DiFMUP pseudosubstrate-fluorogenic assay; details: 0.2 nM SHP-2, 1 μM IRS-1 activator peptide, 50 μM DiFMUP; read-out: SHP2 IC50
Experimental: SHP-2 Biochemical Assay Materials Recombinant SHP-2 full length protein was generated in house. SHP-2 protein tyrosine phosphatase (PTP) domain protein (Catalog number SPR0217-20 ug), NaCl (Catalog number S6546-1L), and KCl (Catalog number 60142-500 mL) were purchased from Sigma-Aldrich (St. Louis, Mo.). IRS-1_[…](dPEG8)[…] peptide […]) was custom made by AnaSpec (Fremont, Calif.). DiFMUP substrate (Catalog number D6567), EDTA (Catalog number E177-500 mL), DTT (Catalog number P2325), and 384-well black polystyrene non-binding surface (Catalog number 3820) were purchased from Fisher Scientific (Hanover Park, Ill.). HEPES (Catalog number 15630-080) was purchased from Life Technologies (Pleasanton, Calif.), and Tween-20 (Catalog number 95059-250) was purchased from VWR (Radnor, Pa.). Method Inhibition of SHP-2 activity by small molecule inhibitors was monitored by a biochemical DiFMUP pseudosubstrate-fluorogenic assay. […] The reaction mix was added to the 384-well non-binding plate which had been pre-spotted with 1:3 serial diluted compounds from 10,000-0.005 nM, and incubated at room temperature for 90 min. DiFMUP substrate at final concentration of 50 μM was then added to the wells and incubated for additional 30 min at room temperature. The final reaction volume was 20 μl/well. […] The inhibitor dose response curves were generated using normalized IC50 regression curve fitting by in house dose response analysis tools. The wells with DMSO vehicle were used as controls (100% signal). The percent (%) control of SHP-2 compound was calculated as: (Compound well fluorescence counts/DMSO fluorescence counts)×100%.

NCI-H358 cells = assay: NCI-H358 3D tumor spheroid growth inhibition; assay type: cell-based; details: Homo sapiens, NCI-H358, 168 h, 3D spheroids, 7 days, 3D CellTiter Glo; cellular IC50 designated EC50; read-out: H358 EC50
Excerpt: SHP-2 Cell Based Assay: […] Materials NCI-H358 cell line was purchased from [NT] number ATCC CRL-5807) (Manassas, Va.). RPMI-1640 (Catalog number 10-040-CM) was from Corning Cellgro (Manassas, Va.), Fetal Bovine Serum (FBS) (Catalog number SH30071.03) was from HyClone (Logan, Utanh), and 100× Penicillin/Streptomycin/L-Glutamine stock (Catalog no. 30-009-CI) and 384-well ULA plates (Catalog number 3830) were from Corning (Fremont, Calif.). Method […] At the day of assay, the cells were trypsinized and seeded at 1000 cells/70 μl/well in 384-well ULA plates and incubated at 37° C. incubator with 5% CO2 to allow spheroids to form. […] The plates were incubated for additional 7 days. Then 35 μl of medium from each well was removed, and replaced with 35 μl of 3D CellTiter Glo reagent from Promega. The wells were mixed by pipetting up and down with Biomek FX for 15 times to induce cell lysis and the plates were incubated at room temperature for additional 10 min to stabilize luminescent signal. The luminescence was then read by Envision. The inhibitor dose response curves were generated using normalized cellular IC50 (designated as EC50 in all FIGURES to distinguish from biochemical IC50s) by in house dose response analyses tools. The wells with DMSO vehicle were used as negative controls (0% inhibition). The % inhibition of SHP-2 compounds was calculated as: 100-[(Compound well luminescence counts/DMSO luminescence counts)×100%].

IC50 [1]	EC50 (NCI-H358 cells)	SMILES
5.6 nM	170 nM	Nc1nccc(Sc2cnc(N3CCC4(CCC[C@H]4N)CC3)n3ccnc23)c1Cl [Example 45, (R)-8-(8-((2-amino-3-chloropyridin-4-yl)thio)imidazo[1,2-c]pyrimidin-5-yl)-8-azaspiro[4.5]decan-1-amine]
3.1 nM	31 nM	N[C@@H]1CCCC12CCN(c1ncc(Sc3ccnc(Cl)c3Cl)c3nccn13)CC2 [Example 46, (R)-8-(8-((2,3-dichloropyridin-4-yl)thio)imidazo[1,2-c]pyrimidin-5-yl)-8-azaspiro[4.5]decan-1-amine]
7.6 nM	150 nM	Cc1nccc(Sc2cnc(N3CCC4(CCC[C@H]4N)CC3)n3ccnc23)c1Cl [Example 47, (R)-8-(8-((3-chloro-2-methylpyridin-4-yl)thio)imidazo[1,2-c]pyrimidin-5-yl)-8-azaspiro[4.5]decan-1-amine]
120 nM	1700 nM	CC1(N)CCN(c2ncc(Sc3cccc(Cl)c3Cl)c3nccn23)CC1 [Example 48, 1-(8-((2,3-dichlorophenyl)thio)imidazo[1,2-c]pyrimidin-5-yl)-4-methylpiperidin-4-amine]
280 nM	> 12500 nM	N[C@@H]1CCCC12CCN(c1ncc(-c3cccc(Cl)c3Cl)c3nccn13)CC2 [Example 52, (R)-8-(8-(2,3-dichlorophenyl)imidazo[1,2-c]pyrimidin-5-yl)-8-azaspiro[4.5]decan-1-amine]
75 nM	990 nM	NC1CCCN(c2ncc(Sc3cccc(Cl)c3Cl)c3nccn23)CC1 (stereo not shown) [Example 56, 1-(8-((2,3-dichlorophenyl)thio)imidazo[1,2-c]pyrimidin-5-yl)azepan-4-amine]
500 nM	> 12500 nM	Clc1cccc(Sc2cnc(N3CCC4(CCCCN4)CC3)n3ccnc23)c1Cl [Example 57, 9-(8-((2,3-dichlorophenyl)thio)imidazo[1,2-c]pyrimidin-5-yl)-1,9-diazaspiro[5.5]undecane]
340 nM	4400 nM	NC1CC2(CCN(c3ncc(Sc4cccc(Cl)c4Cl)c4nccn34)C2)C1 (stereo not shown) [Example 58, 6-(8-((2,3-dichlorophenyl)thio)imidazo[1,2-c]pyrimidin-5-yl)-6-azaspiro[3.4]octan-2-amine]
1300 nM	> 12500 nM	CC1(N)CCN(c2ncc(Sc3cccc(Cl)c3Cl)c3ncnn23)CC1 [Example 62, 1-(8-((2,3-dichlorophenyl)thio)-[1,2,4]triazolo[1,5-c]pyrimidin-5-yl)-4-methylpiperidin-4-amine]
140 nM	2900 nM	Cc1nc(N2CCC3(CCC[C@H]3N)CC2)n2cnnc2c1-c1cnc(N)c(Cl)c1Cl [Example 66, (R)-8-(8-(6-amino-4,5-dichloropyridin-3-yl)-7-methyl-[1,2,4]triazolo[4,3-c]pyrimidin-5-yl)-8-azaspiro[4.5]decan-1-amine]
6.4 nM	100 nM	Cc1nc(N2CCC3(CC2)CO[C@@H](C)[C@H]3N)n2cnnc2c1-c1cccc(Cl)c1Cl [Example 67, (3S,4S)-8-(8-(2,3-dichlorophenyl)-7-methyl-[1,2,4]triazolo[4,3-c]pyrimidin-5-yl)-3-methyl-2-oxa-8-azaspiro[4.5]decan-4-amine]
9.4 nM	440 nM	Cc1nc(N2CCC3(CC2)C[C@@H](O)C[C@H]3N)n2cnnc2c1-c1cccc(Cl)c1Cl [Example 68, (2R,4R)-4-amino-8-(8-(2,3-dichlorophenyl)-7-methyl-[1,2,4]triazolo[4,3-c]pyrimidin-5-yl)-8-azaspiro[4.5]decan-2-ol]
3.1 nM	86 nM	N[C@@H]1CCCC12CCN(c1nc(Cl)c(-c3cccc(Cl)c3Cl)c3nccn13)CC2 [Example 69, (R)-8-(7-chloro-8-(2,3-dichlorophenyl)imidazo[1,2-c]pyrimidin-5-yl)-8-azaspiro[4.5]decan-1-amine]
670 nM	3900 nM	N[C@@H]1CCCC12CCN(c1ncc(Sc3cncc4ccccc34)c3nccn13)CC2 [Example 70, (R)-8-(8-(isoquinolin-4-ylthio)imidazo[1,2-c]pyrimidin-5-yl)-8-azaspiro[4.5]decan-1-amine]
30 nM	550 nM	Cc1nc(N2CCC3(CCC[C@H]3N)CC2)n2ccnc2c1-c1ccc2cn[nH]c2c1 [Example 73, (R)-8-(8-(1H-indazol-6-yl)-7-methylimidazo[1,2-c]pyrimidin-5-yl)-8-azaspiro[4.5]decan-1-amine]
860 nM	> 12500 nM	Cc1nc(N2CCC3(CCC[C@H]3N)CC2)n2ccnc2c1-c1ccc2c(c1)OC(F)(F)O2 [Example 74, (R)-8-(8-(2,2-difluorobenzo[d][1,3]dioxol-5-yl)-7-methylimidazo[1,2-c]pyrimidin-5-yl)-8-azaspiro[4.5]decan-1-amine]
180 nM	3100 nM	N[C@@H]1CCCC12CCN(c1ncc(Sc3ccc4cn[nH]c4c3)c3nccn13)CC2 [Example 77, (R)-8-(8-((1H-indazol-6-yl)thio)imidazo[1,2-c]pyrimidin-5-yl)-8-azaspiro[4.5]decan-1-amine]
5.9 nM	95 nM	N[C@@H]1CCCC12CCN(c1ncc(Sc3ccnc4ccccc34)c3nccn13)CC2 [Example 78, (R)-8-(8-(quinolin-4-ylthio)imidazo[1,2-c]pyrimidin-5-yl)-8-azaspiro[4.5]decan-1-amine]
5300 nM	> 12500 nM	N[C@@H]1CCCC12CCN(c1ncc(SC3CCCCC3)c3nccn13)CC2 [Example 79, (R)-8-(8-(cyclohexylthio)imidazo[1,2-c]pyrimidin-5-yl)-8-azaspiro[4.5]decan-1-amine]

SMILES	IC50 [1]	EC50 (NCI-H358 cells)
C[C@@H]1OCC2(CCN(c3ncc(Sc4cccc(Cl)c4Cl)c4nccn34)CC2)[C@@H]1N [Example 55, (3S,4S)-8-(8-((2,3-dichlorophenyl)thio)imidazo[1,2-c]pyrimidin-5-yl)-3-methyl-2-oxa-8-azaspiro[4.5]decan-4-amine]	1.5 nM	49 nM
CC1(N)CCN(c2ncc(Sc3cccc(Cl)c3Cl)c3nncn23)CC1 [Example 61, 1-(8-((2,3-dichlorophenyl)thio)-[1,2,4]triazolo[4,3-c]pyrimidin-5-yl)-4-methylpiperidin-4-amine]	130 nM	2300 nM
Nc1nccc(Sc2cnc(N3CCC4(CCC[C@H]4N)CC3)n3cnnc23)c1Cl [Example 63, (R)-8-(8-((2-amino-3-chloropyridin-4-yl)thio)-[1,2,4]triazolo[4,3-c]pyrimidin-5-yl)-8-azaspiro[4.5]decan-1-amine]	13 nM	580 nM
C[C@@H]1OCC2(CCN(c3ncc(Oc4cccc(Cl)c4Cl)c4nccn34)CC2)[C@@H]1N [Example 71, (3S,4S)-8-(8-(2,3-dichlorophenoxy)imidazo[1,2-c]pyrimidin-5-yl)-3-methyl-2-oxa-8-azaspiro[4.5]decan-4-amine]	120 nM	1400 nM
N[C@@H]1CCCC12CCN(c1ncc(Nc3cccc(Cl)c3Cl)c3nccn13)CC2 [Example 72, (R)-8-(8-((2,3-dichlorophenyl)amino)imidazo[1,2-c]pyrimidin-5-yl)-8-azaspiro[4.5]decan-1-amine]	2000 nM	> 12500 nM
Cc1nc(N2CCC3(CC2)C[C@@H](O)C[C@H]3N)n2ccnc2c1Sc1cccc(Cl)c1Cl [Example 75, (2R,4R)-4-amino-8-(8-((2,3-dichlorophenyl)thio)-7-methylimidazo[1,2-c]pyrimidin-5-yl)-8-azaspiro[4.5]decan-2-ol]	3.9 nM	48 nM
Cc1nc(N2CCC3(CC2)CO[C@@H](C)[C@H]3N)n2ccnc2c1Sc1cccc(Cl)c1Cl [Example 76, (3S,4S)-8-(8-((2,3-dichlorophenyl)thio)-7-methylimidazo[1,2-c]pyrimidin-5-yl)-3-methyl-2-oxa-8-azaspiro[4.5]decan-4-amine]	3.3 nM	59 nM

Reference: patent US11179397B2, “Imidazopyrimidine derivatives” (Gilead Sciences, Inc., priority 2018, dated 2021)
